Results taken from US9669141B2, “Tissue-engineered pumps and valves and uses thereof” (President and Fellows of Harvard College, priority 2012, dated 2017).

Tested on: Jellyfish swimming muscle
Assay: Excitation-contraction uncoupling of jellyfish swimming muscle during optical mapping
Format: in vivo, Aurelia aurita
Settings: juvenile jellyfish, artificial seawater at room temperature
Procedure: PMDS-coated glass cover slips with cardiomyocyte monolayers of medusoid muscle architecture were assayed in a custom-made optical mapping system (FIGS. 7i-o) by adapting previously described protocols. Briefly, the cultures were incubated for 5 minutes in 8 μM RH-237 voltage-sensitive dye (Iex/Iem in DMSO=˜550/˜800 nm; Molecular Probes) in Tyrode's solution, then washed with Tyrode's solution. During recording, the tissue was placed in Tyrode's solution containing 10 μM excitation-contraction uncoupler blebbistatin, thereby minimizing motion artifacts. All solutions were maintained at 35-37° C. A platinum point electrode connected to a Grass S48 stimulator (Grass technologies, West Warwick, R.I. 02893, USA) was placed ˜1 mm above the culture surface (FIG. 7i) and used to apply point stimuli (2 Hz, 5-8 V, 10-ms duration). Imaging was performed using an inverted microscope (Zeiss Axiovert 200; Carl Zeiss MicroImaging, LLC Thornwood, N.Y. 10594, USA) equipped with a 40× Plan-Neofluar (1.3 NA) oil-immersion objective, a fluorescence light source (Hamamatsu L2422 100 Watt Mercury-Xenon lamp) and a filter cube appropriate for RH237 imaging (Zeiss EX BP530-585, DC FT600, EM LP615). Fluorescence shutter opening and closing was synchronized with the pacing stimulus. Membrane voltage signals were optically recorded at 5 Hz using a honeycomb of 124 independent optical fibers, each monitoring an approximately circular field of view of 25 μm in diameter (FIGS. 6j and 6k) and each connected to a discrete photodiode transimpedance amplifier. The outputs of the photodiode amplifiers were digitized by a bank of differential amplifiers and DAQ cards (National Instruments Corporation, Austin, Tex. 78759, USA). Digitized signals were processed using custom-made software implemented in MATLAB (MathWorks, Natick, Mass. 01760, USA) (FIG. 7l). Activation times, defined as the time point of maximum positive slope of the action potential, served to calculate isochronal maps of activation and velocity vector fields across the field of view monitored by the LED array (FIGS. 7m and 7o).
Optical mapping in jellyfish (FIG. 7a-7h) was performed as in medusoid coverslips except for the following differences. All procedures were carried out in artificial seawater at room temperature (KENT Marine Sea Salt, KENT Marine Sea, 5401 West Oakwood Park Drive, Franklin, Wis. 53132). […] Thus, to constrain movement, an additional cover slip was placed on top of the jellyfish using vacuum grease as a spacer. […] Subsequently, activation times, isochronal maps and velocity vector fields were calculated as above (FIGS. 7e-7h).

Structure (SMILES): Cc1ccc2c(c1)C(=O)C1(O)CCN(c3ccccc3)C1=N2 (stereo not shown) [blebbistatin]
- sensitivity of jellyfish swimming muscle to excitation-contraction uncoupling agents: insensitive

Structure (SMILES): C=C1[C@@H](C)[C@H]2[C@H](Cc3ccccc3)NC(=O)[C@]23[C@H](OC(C)=O)/C=C/[C@@](C)(O)C(=O)[C@@H](C)C/C=C/[C@H]3[C@@H]1O [cytochalasin D]
- sensitivity of jellyfish swimming muscle to excitation-contraction uncoupling agents: insensitive

Structure (SMILES): CC(=O)C(C)=NO [2,3-butanedione monoxime (BDM), 2,3-butanedione monoxime]
- sensitivity of jellyfish swimming muscle to excitation-contraction uncoupling agents: insensitive

Structure (SMILES): O=C1CN(/N=C/c2ccc(-c3ccc([N+](=O)[O-])cc3)o2)C(O)=N1 [dantrolene sodium]
- sensitivity of jellyfish swimming muscle to excitation-contraction uncoupling agents: insensitive
